From EP0305184A1, “Pyrimidines or their pharmaceutically acceptable salts thereof” (MITSUI PHARMACEUTICALS, INC., priority 1987, dated 1989)
Several values for one entry are separate records, joined by “and”; a condition that tells them apart may be missing. Equal values may be shown once. Read-outs that look alike come from different tables or passages of the source.

Columns and labels:
mouse = assay: Acute toxicity; type: in vivo; conditions: p.o., 24 hours after administration
Protocol: (§1) The acute toxicity of the compounds of the invention was examined by the following method.
(§2) Male ddy-strain 5-week old mice and male Wistar-strain 8 week old rats, five per group, were used as experimental animals. Each of the compounds was dissolved in saline and administered perorally (p.o.) or intraperitoneally (i.p.), and the toxicity of the compound was assessed 24 hours after the administration.

Acute toxicity = type: in vivo; conditions: in vivo, mouse, 24 hours after administration
Protocol: as §1, §2

[1] = test system: mice with nerve disorder induced by mercury poisoning; assay: T-shaped maze learning and memory of mice with mercury poisoning; type: in vivo, Male BalbC strain mice; conditions: 102 69.5, 116 76.9 mg/kg.ip/day; for running time: mean ± SE, after MMC; for Number of mice which ran to the safety area within 5 seconds: numerator: at least 8 of ten runs within 5 seconds, denominator: mice tested, after MMC 6 mg/kg/day
Protocol: Male BalbC strain mice, 7 weeks old, were first caused to learn a T-shaped maze three times in a week so that they run straight from a starting point to a safety area. Then, methylmercury chloride (MMC for short) was administered orally in a dose of 6 mg/kg/day for 6 days. A group of mice to which saline was administered in a dose of 0.1 ml/10 g/day was used as a control group. Beginning with the day next to the day of administering MMC, compounds Nos. 102 and 116 were intraperitoneally administered over 10 days in a dose of 69.5 mg/kg/day and 76.9 mg/kg/day, respectively, so as to make the mole numbers of the compounds equal. On the sixth day after administration of the drug (namely, on the 12th day after start of the experiment), learning of the T-shaped maze was resumed, and the running behaviors of the mice were observed. The number of mice which could be experimented in the T-shaped maze on the 10th and 11th days after the resumption (21st and 22nd days after the start of the experiment) was counted and expressed as a denominator. The number of mice which ran to the safety area within 5 seconds at least 8 times out of ten trial runnings was counted and expressed as a numerator. The decrease in the number of the test animals was due to death by MMC poisoning. The time (seconds) required for the animals to run to the safety area was measured, and the mean ± standard error (SE) was calculated.

[2] = test system: rats with crushed sciatic nerves; assay: Curative effect on rats with crushed sciatic nerves; type: in vivo, male Wistar rats; conditions: i.p. once a day, Compound 118 30 mg/kg, Mecobalamin 0.5 mg/kg, mean ± S.E.; for Rate of recovery in muscle weight (%): soleus muscle, crushed side/normal side
Protocol: The curing effect of the compound (I) of the invention was tested on rats having crushed sciatic nerves as a model of peripheral nervous disorder using (1) a change in the action of the hind paw with the crushed sciatic nerves and (2) a change in the weight of the muscle as an index of the course of degeneration and regeneration of peripheral nerves.
In the experiment, male Wistar rats (6 weeks old), seven per group, were used. The sciatic nerves were crushed by a method similar to the method of Yamatsu et al. (see Kiyomi Yamatsu, Takenori Kaneko, Akifumi Kitahara and Isao Ohkawa, Journal of Japanese Pharmacological Society, 72, 259-268 (1976) and the method of Hasegawa et al. (see Kazuo Hasegawa, Naoji Mikuni and Yutaka Sakai, Journal of Japanese Pharmacological Society, 74 721-734 (1978). Specifically, under anesthesia with pentobarbital (40 mg/kg, i.p.), the left side sciatic nerve was exposed at the femur and that site of the exposed sciatic nerve which was 5 mm to the center from the branched part between the N. tibialis and the N. suralis was crushed using a modified artery, klomme, having a width of 2 mm and a gap of 0.1 mm. After the operation, the rats were assigned to the test groups at random.
Compound No. 118 was selected as the compound (I) of the invention and intraperitoneally administered to the rats once a day from the day of operation to the 22nd day. A group to which mecobalamin (made by Gedeon Richter Ltd.) was administered and a group to which 0.9 % saline was administered were used as controls. The following items were measured with the lapse of time (on the lst, 4th, 7th, 10th, 14th, 17th, 21st, and 23rd days after the crushing of the sciatic nerves).
By a method similar to the method of Hasegawa [Hasegawa, K., Experientia, 34, 750-751 (1978)], the distance between the first and fifth digits of the hind paw was measured.
The ratio of the measured distance to the normal distance was calculated and expressed in percentage (%).
It is known that the removal of a nerve or its disorder causes atrophy of the muscle which is under its control, and the atrophy is gradually cured by re-control by the nerve. For this reason, a change in the weight of the muscle, which is quantitative, was selected as an index. Twenty-three days after the operation, the soleus muscles of both sides of paws were extracted under anesthesia with pentobarbital, and their weights were measured. The ratio of the weight of the soleus muscle on the crushed side to that of normal side was calculated and expressed in percentage (%).

[3] = test system: rats having the lesioned nigral dopaminergic nerve cells; assay: Methamphetamine-induced rotational movement after 6-hydroxydopamine lesion and fetal dopamine cell transplantation; type: in vivo, female Wistar rats
Protocol: Nigral dopaminergic nerve cells at the left side of the brain of 4-week old female Wistar rats (body weight 100 g) were lesioned by injecting a very small quantity of 6-hydroxydopamine. […] Upon administration of methamphethamine (5 mg/kg, i.p.) to the rats having the lesioned nigral dopaminergic nerve cells, they began rotational movement toward the lesioned side.
After two weeks from the destruction by the administration of the drug, portions of the truncus corporis callosi containing dopamine cells (i. e., substantia nigra and the tagmentum at the abdomen side) were cut from the brain of a fetal rat of 14 to 17 days of age, cut finely, and treated with trypsin. Then, the extracted tissues were incubated at 37°C for 30 minutes, and the tissues were subjected to pipetting to form a suspension. Five microliters of the suspension was transplanted each into two sites of the caudate nucleus of the lesioned side (10 microliters in total, about 10⁵ cells).
Each of the compounds (I) in a dose of 100 mg/kg (i.p.) was administered every day over two weeks from the day of transplantation. The rotational movements induced by administration of methamphetamine were examined 2 weeks and 1 week before, and 2 weeks and 4 weeks after, the transplantation and the administration of the drug. The number of rotational movements within one minute was counted at intervals of 10 minutes after the administration of methamphetamine, and the total number of rotational movements counted six times was averaged to find a mean number of the rotational movements.

[4] = po, p.o., read-out: Estimated LD₅₀ (mg/kg, p.o.)
[5] = ip, i.p., read-out: Estimated LD₅₀ (mg/kg, i.p.)

CN1C(=O)Cc2cnc(N3CCSCC3)nc21 [Compound 126]
Number of dead animals/number of animals tested (mouse; Dose 1000 mg/kg): 0/5
LD50 at 24 h (Acute toxicity; [4]): > 1000 mg/kg

CC(C)Nc1ncc2c(n1)N(C)C(=O)C2.Cl [Compound 102, 2-iso-Propylamino-5,6-dihydro-7-methyl-6-oxo(7H)pyrrolo[2,3-d]pyrimidine hydrochloride]
running time ([1]; 10th day after resumption): 2.1 ± 0.2 s
Number of mice which ran to the safety area within 5 seconds ([1]; 10th day after resumption): 6/6
running time ([1]; 11th day after resumption): 3.0 ± 0.6 s
Number of mice which ran to the safety area within 5 seconds ([1]; 11th day after resumption): 6/6
Number of dead animals/number of animals tested (mouse; Dose 1000 mg/kg): 0/5
LD50 at 24 h (Acute toxicity; [4]): > 1000 mg/kg

CN(C)c1ncc2c(n1)N(C)C(=O)C2 [Compound 108]
Number of dead animals/number of animals tested (mouse; Dose 1000 mg/kg): 2/5
LD50 at 24 h (Acute toxicity; [4]): > 1000 mg/kg

CN1CCN(c2ncc3c(n2)N(C)C(=O)C3)CC1 [Compound 138]
Number of dead animals/number of animals tested (mouse; Dose 1000 mg/kg): 0/5
LD50 at 24 h (Acute toxicity; [5]): 250 to 500 mg/kg
LD50 at 24 h (Acute toxicity; [4]): > 1000 mg/kg

C/C1=C2/[N-][C@H]([C@H](CC(N)=O)[C@@]2(C)CCC(=O)NC[C@@H](C)OP(=O)([O-])O[C@H]2[C@@H](O)[C@@H](n3cnc4cc(C)c(C)cc43)O[C@@H]2CO)[C@]2(C)N=C(/C(C)=C3N=C(/C=C4N=C1[C@@H](CCC(N)=O)C\4(C)C)[C@@H](CCC(N)=O)[C@]\3(C)CC(N)=O)[C@@H](CCC(N)=O)[C@]2(C)CC(N)=O.[CH3-].[Co+3] [Mecobalamin, reference compound]
Rate of recovery of the interdigit distance (%) ([2]; 21st day): 79.1±2.6 %
Rate of recovery of the interdigit distance (%) ([2]; 23rd day): 88.3±4.0 %
Rate of recovery in muscle weight (%) ([2]; 23rd day): 55.0±3.5%

CN1C(=O)Cc2cnc(N3CCOCC3)nc21 [Compound 122]
Number of dead animals/number of animals tested (mouse; Dose 1000 mg/kg): 1/5
LD50 at 24 h (Acute toxicity; [4]): > 1000 mg/kg

CCN(CC)C(=O)N1CCN(c2ncc3c(n2)N(C)C(=O)C3)CC1 [Compound 132, 2-Diethylaminocarbonylpiperazino-5,6-dihydro-7-methyl-oxo(7H)pyrrolo[2,3-d]pyrimidine]
Number of dead animals/number of animals tested (mouse; Dose 1000 mg/kg): 1/5
LD50 at 24 h (Acute toxicity; [4]): > 1000 mg/kg

CN1C(=O)Cc2cnc(N3CCCCC3)nc21 [Compound 118]
Number of rotational movements of rats and average values thereof (mean ±S.D.) ([3]; 2W after transplantation, 100 mg/kg (i.p.) every day over two weeks): 1.9±3.2
Number of rotational movements of rats and average values thereof (mean ±S.D.) ([3]; -1W (before transplantation and drug administration, baseline)): 13.9±7.4 and 10.8±4.9
Number of rotational movements of rats and average values thereof (mean ±S.D.) ([3]; -2W (before transplantation and drug administration, baseline)): 9.1±5.6
Number of rotational movements of rats and average values thereof (mean ±S.D.) ([3]; column headed 3W, footnote: * Data at 2 W, 100 mg/kg (i.p.) every day over two weeks): *5.5±7.2
Number of dead animals/number of animals tested (mouse; Dose 1000 mg/kg): 0/5
LD50 at 24 h (Acute toxicity; [5]): 500 to 1000 mg/kg
LD50 at 24 h (Acute toxicity; [4]): > 1000 mg/kg
Rate of recovery of the interdigit distance (%) ([2]; 21st day): 79.8±2.5 %
Rate of recovery of the interdigit distance (%) ([2]; 23rd day): 87.9±3.3 %
Rate of recovery in muscle weight (%) ([2]; 23rd day): 59.6±2.8 %

CN1Cc2nc(N3CCCCC3)ncc2C1=O [Compound 218]
Number of dead animals/number of animals tested (mouse; Dose 550 mg/kg): 0/5
LD50 at 24 h (Acute toxicity; [4]): > 550 mg/kg

CN1C(=O)Cc2cnc(N3CCCC3)nc21 [Compound 112]
Number of dead animals/number of animals tested (mouse; Dose 1000 mg/kg): 0/5
LD50 at 24 h (Acute toxicity; [4]): > 1000 mg/kg

CN1Cc2nc(N3CCCC3)ncc2C1=O [Compound 216]
Number of dead animals/number of animals tested (mouse; Dose 550 mg/kg): 0/5
LD50 at 24 h (Acute toxicity; [4]): > 550 mg/kg

CC1CCN(c2ncc3c(n2)N(C)C(=O)C3)CC1 [Compound 175]
LD50 at 24 h (Acute toxicity; [5]): 500 to 1000 mg/kg

CC(C)Nc1ncc2c(n1)N(C)C(=O)C2.O=C(O)/C=C\C(=O)O [Compound 104, 2-iso-Propylamino-5,6-dihydro-7-methyl-6-oxo(7H)pyrrolo[2,3-d]pyrimidine maleate]
Number of rotational movements of rats and average values thereof (mean ±S.D.) ([3]; 2W after transplantation, 100 mg/kg (i.p.) every day over two weeks, maleate, 100 mg/kg): 2.0±3.2 and 3.1±3.8
Number of rotational movements of rats and average values thereof (mean ±S.D.) ([3]; -1W (before transplantation and drug administration, baseline), maleate): 10.8±3.8 and 10.4±5.2
Number of rotational movements of rats and average values thereof (mean ±S.D.) ([3]; -2W (before transplantation and drug administration, baseline), maleate): 12.3±3.7 and 10.1±6.1
